Patent publication US20140005275A1, “TOPICAL APPLICATION OF 1-HYDROXYL 3,5-BIS(4'HYDROXYL STYRYL)BENZENE” (priority 2012, published 2014)

Columns and labels:
[1] = system: IL-8 cytokine release; assay: Anti-inflammatory activity: IL-8 cytokine release from epidermal equivalents after solar UV exposure; assay type: cell-based, human; conditions: for Change over vehicle alone (Normalized to 100) / % inhibition over UV treatment: IL-8 release; for Change over vehicle alone (Normalized to 100): 2 h before UV 70 kJ/m^2, 24 hours; for % inhibition over UV treatment: UV-exposed epidermal equivalents; for UV-induced inflammation (result in words): summary of Table 2
Procedure: The topical anti-inflammatory activities of 1-hydroxyl 3,5-bis(4′hydroxyl styryl)benzene and its piperazine salt were evaluated as follows.
Epidermal equivalents (EPI 200 HCF), multilayer and differentiated epidermis consisting of normal human epidermal keratinocytes, were purchased from MatTek (Ashland, Mass.). Upon receipt, epidermal equivalents were incubated for 24 hours at 37° C. in maintenance medium without hydrocortisone. Equivalents were topically treated (2 mg/cm^2) with 1-hydroxyl 3,5-bis(4′hydroxyl styryl)benzene thereof in a 70:30 Ethanol-Propylene glycol vehicle two hours before exposure to solar ultraviolet light (1000W-Oriel solar simulator equipped with a 1-mm Schott WG 320 filter; UV dose applied: 70 kJ/m^2 as measured at 360 nm). The equivalents were incubated for 24 hours at 37° C. with maintenance medium then supernatants were analyzed for IL-8 cytokine release using commercially available kits (Millipore Corp., Billerica, Mass.).

[2] = system: Collagen1A; assay: Induction of Collagen1A gene expression in primary human dermal fibroblasts (quantitative PCR); assay type: cell-based; conditions: for Collagen1A Normalized Fold-change in PCR (Mean): 0.1 ug/mL, 48 hr, normalized to GAPDH, from untreated
Procedure: (§1) Primary human dermal fibroblasts (Lifeline Cell Technologies, Frederick, Md.) were grown until confluence in DMEM media (Invitrogen/Life Technologies, Carlsbad, Calif.) with 10% FBS and 1% Penicillin-Streptomycin on 24 well tissue culture plates, followed by treatment with 1-hydroxyl 3,5-bis(4′hydroxyl styryl)benzene (0.1 ug/mL) with and without TNF-a for 48 hr. Post-treatment, cells were lysed using RLT buffer and total RNA was isolated using the RNeasy Mini Kit (Qiagen, Valencia, Calif.). Quantitative PCR was performed using the Gene Amp PCR System 9700 and 7500 Real Time PCR System cycler (Applied Biosystems)/Life Technologies, Carlsbad, Calif.). Elastin (Qiagen) and Collagenlal primers (custom sequence-sense: 5′-TCC-CCA-GCT-GTC-TTA-TGG-CT-3′ and anti-sense: 5′-CAG-GCA-CGG-AAA-TTC-CTC-C-3′) were used. The housekeeping gene GAPDH was used for normalization (custom primer sequence: F 5′-ATC-TCT-GCC-CCC-TCT-GCT-G-3′ and R 5′-ATG-GTT-CAC-ACC-CAT-GAC-GA-3′; Invitrogen/Life Technologies, Carlsbad, Calif.). Fold-changes in PCR (normalized to GAPDH) were calculated from untreated.

[3] = system: MMP-9; assay: Inhibition of TNF-α-induced MMP-9 levels in epidermal equivalents; assay type: cell-based, human; conditions: for Mean of MMP-9 Release: 2 hours before TNF-α (100 ng/mL), 48 hours
Procedure: The ability of 1-hydroxyl 3,5-bis(4′hydroxyl styryl)benzene to inhibit TNF-a induced MMP-9 levels was tested at different concentrations as follows. The formation of TNF-α induced MMP-9 is involved in the undesirable breakdown of extracellular matrix in human skin.
Epidermal equivalents (EPI 200 HCF) were purchased from MatTek (Ashland, Mass.). Upon receipt, the epidermal equivalents were incubated for 24 hours at 37° C. in maintenance medium without hydrocortisone. The equivalents were topically treated (2 mg/cm^2) with 1-hydroxyl 3,5-bis(4′hydroxyl styryl)benzene extracts in a 70% ethanol/30% propylene glycol vehicle 2 hours before treatment with TNF-α (100 ng/mL). the equivalents were incubated for 48 hours at 37° C. with maintenance medium then supernatants were analyzed for MMP-9 using commercially available kits (R&D Systems, Minneapolis, Minn.).

[4] = system: NF-kB luciferase promoter; assay: NF-κB INHIBITION TEST (NF-kB luciferase reporter, TNFα-stimulated H9c2 cells); assay type: cell-based, Rat; conditions: TNFα 100 ng/ml, versus TNFα + Vehicle (0.1% DMSO)
Procedure: NFκB-INHIBITION TESTS were performed on various concentrations of 1-hydroxyl 3,5-bis(4′hydroxyl styryl)benzene and a vehicle control (DMSO). The 1-hydroxyl 3,5-bis(4′hydroxyl styryl)benzene was prepared as described in U.S. Pat. No. 7,745,670. The NF-κB INHIBITION TEST was conducted as follows. Rat cardiac myoblasts H9c2 cells were purchased from ATCC (Manassas, Va.). Cultures were maintained in Dulbecco's modified Eagle's medium (DMEM, Invitrogen Life Technologies, Carlsbad, Calif.) supplemented with 10% fetal bovine serum, 100 units/ml penicillin, and 50 ug/ml streptomycin (Invitrogen life technologies, Carlsbad, Calif.). 1×10^4 cells grown in 96-well plates were transiently transfected with 0.45 ug total DNA per well using Lipofectamine 2000 (Invitrogen life technologies, Carlsbad, Calif.). In all transfections, a construct with the thymidine kinase promoter and the Renilla luciferase reporter gene (pRL-TK, Promega, Madison Wis.) was included as an internal control in addition to the NF-kB luciferase promoter. One day after transfection, cells were treated with the indicated samples (in DMSO as vehicle) at indicated concentrations and stimulated with 100 ng/mL of Tumor Necrosis Factor-α (TNFα, Sigma-Aldrich, St Louis, Mo.) for approximately 24 hours before they were lysed for luciferase assays, using Dual-Luciferase Reporter System from Promega (Madison, Wis.), following manufacturer's protocol. Briefly, the firefly luciferase activity was measured first (representing NF-kB promoter activity), followed by the renilla luciferase (internal control), using luminometer LMAX, from Molecular Devices (Sunnyvale, Calif.). The ratio of these two luciferase activities (RLU) was used to evaluate the activity of each promoter: NF-κB Inhibition=[1−(RLUsample/RLUcontrol)]*100 where RLUsample and RLUcontrol are the normalized luciferase activity ratios of the sample and control, respectively. The results are shown in Table 1, in which NF-kB Gene Reporter Activation (Luminescence, L) is reported. Percent NF-kB Inhibition is also reported.

[5] = system: Elastin; assay: Induction of Elastin gene expression in primary human dermal fibroblasts (quantitative PCR); assay type: cell-based; conditions: for Elastin Normalized Fold-change in PCR (Mean): 0.1 ug/mL, 48 hr, normalized to GAPDH, from untreated
Procedure: as §1

[6] = 0.5% topical (2 mg/cm^2) in 70:30 Ethanol-Propylene glycol
[7] = 1% topical (2 mg/cm^2) in 70:30 Ethanol-Propylene glycol

## Oc1ccc(/C=C/c2cc(O)cc(/C=C/c3ccc(O)cc3)c2)cc1 [1-Hydroxyl 3,5-bis(4′hydroxylstyryl)benzene]
[1]; [6]
  Change over vehicle alone (Normalized to 100): 82 ± 21
[1]; 0.5% topical
  % inhibition over UV treatment: 39%
[1]; [7]
  Change over vehicle alone (Normalized to 100): 80 ± 26
[1]; 1% topical
  % inhibition over UV treatment: 40%
[1]
  UV-induced inflammation (result in words): strong reduction in UV-induced inflammation
[2]; with TNF-α (10 ng/mL)
  Collagen1A Normalized Fold-change in PCR (Mean): 1.36
[2]; without TNF-α
  Collagen1A Normalized Fold-change in PCR (Mean): 2.96
[2]; summary of Tables 3A and 3B
  expression of genes associated with collagen production (result in words): increased the expression of genes associated with collagen and elastin production
[3]; 0.25% w/v topical (2 mg/cm^2)
  Mean of MMP-9 Release: 1392 ± 627 ng/mL
[3]; 0.5% w/v topical (2 mg/cm^2)
  Mean of MMP-9 Release: 1012 ± 249 ng/mL
[3]; Homo sapiens, 0.25% w/v topical, TNF-α 100 ng/mL, read-out: Percent Inhibition of MMP-9 Production (over TNF-α alone)
  inhibition at 0.25 % strength: 60.9%
[3]; Homo sapiens, 0.5% w/v topical, TNF-α 100 ng/mL, read-out: Percent Inhibition of MMP-9 Production (over TNF-α alone)
  inhibition at 0.5 % strength: 71.6%
[3]; summary of Table 4
  formation of TNF-α induced MMP-9 (result in words): inhibited the formation of TNF-α induced MMP-9
[4]; 0.2 ug/ml
  Percent NF-kB Inhibition: 0.5%
[4]; 0.5 ug/ml
  Percent NF-kB Inhibition: 22.1%
[4]; 1 ug/ml
  Percent NF-kB Inhibition: 51.7%
[4]; 2 ug/ml
  Percent NF-kB Inhibition: 71.0%
[4]; 4 ug/ml
  Percent NF-kB Inhibition: 96.1%
[5]; with TNF-α (10 ng/mL)
  Elastin Normalized Fold-change in PCR (Mean): 1.12
[5]; without TNF-α
  Elastin Normalized Fold-change in PCR (Mean): 6.23
[5]; summary of Tables 3A and 3B
  expression of genes associated with elastin production (result in words): increased the expression of genes associated with collagen and elastin production

## Oc1ccc(C=Cc2cc(O)cc(C=Cc3ccc(O)cc3)c2)cc1 [1-hydroxyl 3,5-bis(4′hydroxylstyryl)benzene]
[1]; [6]
  Change over vehicle alone (Normalized to 100): 85 ± 14
[1]; 0.5% topical
  % inhibition over UV treatment: 37%
[1]; [7]
  Change over vehicle alone (Normalized to 100): 81 ± 31
[1]; 1% topical
  % inhibition over UV treatment: 40%
[1]
  UV-induced inflammation (result in words): strong reduction in UV-induced inflammation
